SMILES strings stand for the structures. ± gives the expanded uncertainty stated by the source.

For orientation: mass density means mass per unit of volume.

The conditions of this data set: 293.15 K; 101.33 kPa; Liquid; Vibrating tube method.
Turning to `CN1CCN(C)C1=O` [1,3-dimethyl-2-imidazolidinone], the mass density is reported as 1058 ± 2 kg/m3.
The figure for `CN1CCCN(C)C1=O` [1,3-dimethyl-3,4,5,6-tetrahydro-2(1H)-pyrimidinone] is 1065 ± 2 kg/m3; for `CCCCOC(=O)C(C)O` (centres undefined) [butyl 2-hydroxypropanoate] it is 982 ± 2 kg/m3.
With `O=C1CCCO1` [γ-butyrolactone] the figure was 1129 ± 2 kg/m3.

The record behind these values is the NIST ThermoML archive (doi:10.1021/acs.jced.5b00893).
